Patent US20230000876A1, “TREATING CANCERS WITH A CYCLIN-DEPENDENT KINASE INHIBITOR” (Nuvation Bio Inc., priority 2021, published 2023)

Legend:
U-118MG xenograft tumors = test: U-118MG glioma subcutaneous xenograft model; format: in vivo, female CB17 SCID mice; settings: for T/C / TGI / Tumor Size: PG-D27
Protocol: The tumor cells were routinely subcultured twice weekly. The cells growing in an exponential growth phase were harvested and counted for tumor inoculation.
The treatments was started on day 7 after tumor inoculation when the average tumor volume reached 150 mm^3. 60 mice were selected and assigned into 6 groups. The testing articles were administrated to the mice according to Table 1.
Tumor size was measured twice weekly in two dimensions using a caliper, and the volume was expressed in mm^3 using the formula: V=0.5 a×b^2 where a and b are the long and short diameters of the tumor, respectively. The tumor sizes are then used for the calculation of T/C and TGI values.
The T/C value (in percent) is an indication of antitumor effectiveness; T and C are the mean volume of the treated and control groups, respectively, on a given day.
TGI was calculated for each group using the formula: TGI (%)=[1−(Ti−T0)/(Vi−V0)]×100; Ti is the average tumor volume of a treatment group on PG-D28 T0 is the average tumor volume of the treatment group on the day of treatment start, Vi is the average tumor volume of the vehicle control group on the same day with Ti, and V0 is the average tumor volume of the vehicle group on the day of treatment start.
All Groups were taken down on PG-D28, tumor, plasma and brain samples were collected.
For statistical analysis for difference among groups 2-6 and group 1, a one-way ANOVA was performed. All the analysis were conducted using GraphPad Prism software. p<0.05 was considered to be statistically significant.

[1] = system: 7 CNS metastasis cell lines (MOLT-4-luc, Nalm-6-luc, NCI-H460-luc, ACHN-luc2, PC-9-luc, H1975-luc, KM12-luc); test: Anti-proliferation assay, 7 CNS metastasis cell lines taken together; format: cell-based
Protocol: The anti-proliferation effect of 2 compounds (the compound of formula (I) and temozolomide) in 7 CNS metastasis cell lines (MOLT-4-luc, Nalm-6-luc, NCI-H460-luc, ACHN-luc2, PC-9-luc, H1975-luc, and KM12-luc) was evaluated.
The plating of cells and compound treatments are shown below in the plate map (Table 12). One plate was needed for the test of 2 compounds (the compound of formula (I) and temozolomide) in one cell line. The compound of formula (I) was tested from 10 μM, 3-fold serial dilution. Temozolomide was tested from 100 μM, 3-fold serial dilution. […]
The procedures were performed according to the Promega CellTiter-Glo Luminescent Cell Viability Assay Kit manual (Promega-G7573). • The CellTiter-Glo buffer was thawed and equilibrated to room temperature prior to use. • CellTiter-Glo Substrate was equilibrated to room temperature prior to use. • The entire liquid volume of CellTiter-Glo Buffer was transferred into the amber bottle containing CellTiter-Glo Substrate to reconstitute the lyophilized enzyme/substrate mixture. […] Plates were covered with aluminum foil to protect from light. • The contents were mixed for 2 minutes on an orbital shaker to induce cell lysis. • The plate was incubated at room temperature for 20 minutes to stabilize luminescent signal. • Record luminescence on the 2104 EnVision plate reader. […]

[2] = system: 7 melanoma cell lines (A375, COLO 829, SK-MEL-3, SK-MEL-5, SK-MEL-24, SK-MEL-28, SK-MEL-31); test: Anti-proliferation assay, 7 melanoma cell lines taken together; format: cell-based
Protocol: Inhibition rate (IR) of the tested compounds was determined by the following formula: IR (%)=(1−(RLU compound−RLU day0)/(RLU control−RLU day0))*100%. The inhibitions of different dose of compound were calculated in Excel file, and then were used to plot inhibition curves and evaluate related parameters, such as Min (%), Max (%) and GI50. The data were interpreted by GraphPad Prism.
The anti-proliferation effect of the compound of formula (I) in 7 CNS melanoma cell lines was evaluated.

[3] = Group 2: Compound (I) 10 mg/kg PO, QD
[4] = Group 3: Compound (I) 30 mg/kg PO, QD
[5] = Group 4: Compound (I) 60 mg/kg PO, QD
[6] = Group 5: Compound (I) 60 mg/kg PO, QOD
[7] = read-out: Absolute GI50 values, range over 7 cell lines

## CC(C)N1CCOc2c(F)cc(-c3nc(Nc4ccc(C5CCN(C)CC5)cn4)ncc3F)cc21 [Compound (I), 5-fluoro-4-(8-fluoro-4-isopropyl-3,4-dihydro-2H-benzo[b][1,4]oxazin-6-yl)-N-(5-(1-methylpiperidin-4-yl)pyridin-2-yl)pyrimidin-2-amine]
U-118MG xenograft tumors; 10 mg/kg PO QD, day 0
  Tumor volume (mean ± SEM): 154 ± 12 mm^3
U-118MG xenograft tumors; 10 mg/kg PO QD, day 3
  Tumor volume (mean ± SEM): 238 ± 16 mm^3
U-118MG xenograft tumors; 10 mg/kg PO QD, day 7
  Tumor volume (mean ± SEM): 277 ± 20 mm^3
U-118MG xenograft tumors; 10 mg/kg PO QD, day 10
  Tumor volume (mean ± SEM): 291 ± 28 mm^3
U-118MG xenograft tumors; 10 mg/kg PO QD, day 14
  Tumor volume (mean ± SEM): 275 ± 28 mm^3
U-118MG xenograft tumors; 10 mg/kg PO QD, day 17
  Tumor volume (mean ± SEM): 281 ± 34 mm^3
U-118MG xenograft tumors; 10 mg/kg PO QD, day 21
  Tumor volume (mean ± SEM): 269 ± 43 mm^3
U-118MG xenograft tumors; 10 mg/kg PO QD, day 24
  Tumor volume (mean ± SEM): 270 ± 40 mm^3
U-118MG xenograft tumors; 10 mg/kg PO QD, day 28
  Tumor volume (mean ± SEM): 273 ± 39 mm^3
U-118MG xenograft tumors; 30 mg/kg PO QD, day 0
  Tumor volume (mean ± SEM): 155 ± 11 mm^3
U-118MG xenograft tumors; 30 mg/kg PO QD, day 3
  Tumor volume (mean ± SEM): 237 ± 22 mm^3
U-118MG xenograft tumors; 30 mg/kg PO QD, day 7
  Tumor volume (mean ± SEM): 273 ± 26 mm^3
U-118MG xenograft tumors; 30 mg/kg PO QD, day 10
  Tumor volume (mean ± SEM): 241 ± 25 mm^3
U-118MG xenograft tumors; 30 mg/kg PO QD, day 14
  Tumor volume (mean ± SEM): 230 ± 19 mm^3
U-118MG xenograft tumors; 30 mg/kg PO QD, day 17
  Tumor volume (mean ± SEM): 214 ± 16 mm^3
U-118MG xenograft tumors; 30 mg/kg PO QD, day 21
  Tumor volume (mean ± SEM): 193 ± 17 mm^3
U-118MG xenograft tumors; 30 mg/kg PO QD, day 24
  Tumor volume (mean ± SEM): 174 ± 19 mm^3
U-118MG xenograft tumors; 30 mg/kg PO QD, day 28
  Tumor volume (mean ± SEM): 172 ± 18 mm^3
U-118MG xenograft tumors; 60 mg/kg PO QD, day 0
  Tumor volume (mean ± SEM): 156 ± 12 mm^3
U-118MG xenograft tumors; 60 mg/kg PO QD, day 3
  Tumor volume (mean ± SEM): 220 ± 17 mm^3
U-118MG xenograft tumors; 60 mg/kg PO QD, day 7
  Tumor volume (mean ± SEM): 264 ± 14 mm^3
U-118MG xenograft tumors; 60 mg/kg PO QD, day 10
  Tumor volume (mean ± SEM): 227 ± 10 mm^3
U-118MG xenograft tumors; 60 mg/kg PO QD, day 14
  Tumor volume (mean ± SEM): 202 ± 10 mm^3
U-118MG xenograft tumors; 60 mg/kg PO QD, day 17
  Tumor volume (mean ± SEM): 174 ± 12 mm^3
U-118MG xenograft tumors; 60 mg/kg PO QD, day 21
  Tumor volume (mean ± SEM): 160 ± 10 mm^3
U-118MG xenograft tumors; 60 mg/kg PO QD, day 24
  Tumor volume (mean ± SEM): 156 ± 8 mm^3
U-118MG xenograft tumors; 60 mg/kg PO QD, day 28
  Tumor volume (mean ± SEM): 156 ± 8 mm^3
U-118MG xenograft tumors; 60 mg/kg PO QOD, day 0
  Tumor volume (mean ± SEM): 154 ± 11 mm^3
U-118MG xenograft tumors; 60 mg/kg PO QOD, day 3
  Tumor volume (mean ± SEM): 233 ± 20 mm^3
U-118MG xenograft tumors; 60 mg/kg PO QOD, day 7
  Tumor volume (mean ± SEM): 304 ± 27 mm^3
U-118MG xenograft tumors; 60 mg/kg PO QOD, day 10
  Tumor volume (mean ± SEM): 273 ± 28 mm^3
U-118MG xenograft tumors; 60 mg/kg PO QOD, day 14
  Tumor volume (mean ± SEM): 234 ± 22 mm^3
U-118MG xenograft tumors; 60 mg/kg PO QOD, day 17
  Tumor volume (mean ± SEM): 215 ± 22 mm^3
U-118MG xenograft tumors; 60 mg/kg PO QOD, day 21
  Tumor volume (mean ± SEM): 193 ± 20 mm^3
U-118MG xenograft tumors; 60 mg/kg PO QOD, day 24
  Tumor volume (mean ± SEM): 183 ± 21 mm^3
U-118MG xenograft tumors; 60 mg/kg PO QOD, day 28
  Tumor volume (mean ± SEM): 177 ± 22 mm^3
U-118MG xenograft tumors; [3]
  T/C: 43.20%
  TGI: 75.08%
  Tumor Size: 273 ± 39 mm^3
U-118MG xenograft tumors; [4]
  T/C: 27.32%
  Tumor Size: 172 ± 18 mm^3
U-118MG xenograft tumors; [5]
  T/C: 24.64%
  TGI: 100.03%
  Tumor Size: 156 ± 8 mm^3
U-118MG xenograft tumors; [6]
  T/C: 28.09%
  TGI: 95.14%
  Tumor Size: 177 ± 22 mm^3
U-118MG xenograft tumors; mouse, in vivo
  Antitumor activity relative to the control group: dose-dependent and statistically significant antitumor activity
  Effect of 30 mg/kg QD compared with 60 mg/kg QOD: similar
[1]; current testing concentrations
  Inhibitory effect in cell viability assay: significant inhibitory effect
[1]; [7]
  GI50: 47 to 2790 nM
[2]
  Inhibitory effect in cell viability assay: significant inhibitory effects
[2]; [7]
  GI50: 156 to 1240 nM
